Assay results taken from US20030003139A1 (Schering AG, priority 2000, published 2003).
Blank lines part the entries; values can stand above or below the molecule they belong to.

Legend:
[1] = formulations for transdermal systems; cited from earlier work
[2] = in-vitro-diffusion test, Franz-flow cell, transdermal in-vitro skin flow from patches; format: in vitro ADME, mice; settings: for transdermal in-vitro skin flow / transdermal in-vitro skin flow, MW (mean value): gestodene patch 1% by weight; for transdermal in-vitro skin flow, MW (mean value): mean of cells
Description: The measurements were made with the following in-vitro-diffusion test. A tempered Franz-flow cell is divided into a donor compartment and an acceptor compartment by a 2 cm^2 piece of excised skin from nude mice, whereby the horny layer faces toward the donor. A 3% or 5% solution of hydroxypropyl-β-cyclodextrin in buffer is pumped with the aid of a pneumatic pump from a tempered storage container through the acceptor compartment and collected with the aid of a fraction collector in glass vials that are exchanged at specific time intervals.
The active ingredient-containing patches are bonded to the donor side.
The content of active ingredients is determined in the individual fractions by means of HPLC/UV or GC/FID.
The transdermal in-vitro skin flow is indicated in ng/cm^2/h: […]

[3] = solubility (crystal-free loadability) of the active ingredient in polyacrylate matrix-TDS according to Example 1; format: physicochemical; settings: for content up to which active ingredient is present in dissolved form in matrix-TDS: matrix-TDS according to Example 1
Method: Hydroxytrienedione is weighed in a beaker and with 25 g of a 30% solution of Kollidon^(R) VA 64 in 2-propanol. 10 ml of 2-propanol is added. The mixture that is obtained is stirred for 5 minutes. The mixture is fed into the adhesive solution (Gelva 7881) that is introduced. The following table indicates the adhesive dry mass that is contained in the introduced volume of the adhesive solution. Then, it is stirred for another 0.5 hour. After polarization-microscopic checking to ensure the absence of crystals, the mixture that is obtained is coated by means of a 300 μm doctor blade on a liner that consists of fluoropolymer-coated polyester (Scotchpak^(R) 1022 Release Liner). It is dried for 20 minutes at 70° C. and then laminated with a backing that consists of a co-laminate of PVC-PVDS with polyester (Saran-Hytrel^(R) backing). Round patches with a surface area of 10 cm^2 are punched from the three-layer laminate that is obtained and welded into a sealed bag that is made of aluminum compound foil.
A matrix-TDS, in which the active ingredient is present in dissolved form, can be produced according to Example 1 with gestodene only up to about 1% (m/m). Moreover, it results in recrystallization phenomena of the gestodene. The skin flow cannot increase decisively.

- transdermal in-vitro skin flow ([2]; 1 h, diffusion cell 1): 0 ng/cm^2/h
- transdermal in-vitro skin flow ([2]; 1 h, diffusion cell 2): 0 ng/cm^2/h
- transdermal in-vitro skin flow ([2]; 1 h, diffusion cell 3): 0 ng/cm^2/h
- transdermal in-vitro skin flow ([2]; 1 h, diffusion cell 4): 0 ng/cm^2/h
- transdermal in-vitro skin flow, MW (mean value) ([2]; 1 h): 0 ng/cm^2/h
- transdermal in-vitro skin flow ([2]; 3 h, diffusion cell 1): 1 ng/cm^2/h
- transdermal in-vitro skin flow ([2]; 3 h, diffusion cell 2): 4 ng/cm^2/h
- transdermal in-vitro skin flow ([2]; 3 h, diffusion cell 3): 2 ng/cm^2/h
- transdermal in-vitro skin flow ([2]; 3 h, diffusion cell 4): 5 ng/cm^2/h
- transdermal in-vitro skin flow, MW (mean value) ([2]; 3 h): 3 ng/cm^2/h
- transdermal in-vitro skin flow ([2]; 5 h, diffusion cell 1): 5 ng/cm^2/h
- transdermal in-vitro skin flow ([2]; 5 h, diffusion cell 2): 31 ng/cm^2/h
- transdermal in-vitro skin flow ([2]; 5 h, diffusion cell 3): 14 ng/cm^2/h
- transdermal in-vitro skin flow ([2]; 5 h, diffusion cell 4): 18 ng/cm^2/h
- transdermal in-vitro skin flow, MW (mean value) ([2]; 5 h): 17 ng/cm^2/h
- transdermal in-vitro skin flow ([2]; 10 h, diffusion cell 1): 39 ng/cm^2/h
- transdermal in-vitro skin flow ([2]; 10 h, diffusion cell 2): 72 ng/cm^2/h
- transdermal in-vitro skin flow ([2]; 10 h, diffusion cell 3): 80 ng/cm^2/h
- transdermal in-vitro skin flow ([2]; 10 h, diffusion cell 4): 58 ng/cm^2/h
- transdermal in-vitro skin flow, MW (mean value) ([2]; 10 h): 62 ng/cm^2/h
- transdermal in-vitro skin flow ([2]; 18 h, diffusion cell 1): 77 ng/cm^2/h
- transdermal in-vitro skin flow ([2]; 18 h, diffusion cell 2): 46 ng/cm^2/h
- transdermal in-vitro skin flow ([2]; 18 h, diffusion cell 3): 110 ng/cm^2/h
- transdermal in-vitro skin flow ([2]; 18 h, diffusion cell 4): 36 ng/cm^2/h
- transdermal in-vitro skin flow, MW (mean value) ([2]; 18 h): 67 ng/cm^2/h
- transdermal in-vitro skin flow ([2]; 26 h, diffusion cell 1): 120 ng/cm^2/h
- transdermal in-vitro skin flow ([2]; 26 h, diffusion cell 2): 45 ng/cm^2/h
- transdermal in-vitro skin flow ([2]; 26 h, diffusion cell 3): 111 ng/cm^2/h
- transdermal in-vitro skin flow ([2]; 26 h, diffusion cell 4): 33 ng/cm^2/h
- transdermal in-vitro skin flow, MW (mean value) ([2]; 26 h): 77 ng/cm^2/h
- transdermal in-vitro skin flow ([2]; 34 h, diffusion cell 1): 50 ng/cm^2/h
- transdermal in-vitro skin flow ([2]; 34 h, diffusion cell 2): 39 ng/cm^2/h
- transdermal in-vitro skin flow ([2]; 34 h, diffusion cell 3): 83 ng/cm^2/h
- transdermal in-vitro skin flow ([2]; 34 h, diffusion cell 4): 31 ng/cm^2/h
- transdermal in-vitro skin flow, MW (mean value) ([2]; 34 h): 51 ng/cm^2/h
- transdermal in-vitro skin flow ([2]; 42 h, diffusion cell 1): 47 ng/cm^2/h
- transdermal in-vitro skin flow ([2]; 42 h, diffusion cell 2): 33 ng/cm^2/h
- transdermal in-vitro skin flow ([2]; 42 h, diffusion cell 3): 74 ng/cm^2/h
- transdermal in-vitro skin flow ([2]; 42 h, diffusion cell 4): 25 ng/cm^2/h
- transdermal in-vitro skin flow, MW (mean value) ([2]; 42 h): 45 ng/cm^2/h
- transdermal in-vitro skin flow ([2]; 50 h, diffusion cell 1): 37 ng/cm^2/h
- transdermal in-vitro skin flow ([2]; 50 h, diffusion cell 2): 27 ng/cm^2/h
- transdermal in-vitro skin flow ([2]; 50 h, diffusion cell 3): 44 ng/cm^2/h
- transdermal in-vitro skin flow ([2]; 50 h, diffusion cell 4): 22 ng/cm^2/h
- transdermal in-vitro skin flow, MW (mean value) ([2]; 50 h): 32 ng/cm^2/h
- content up to which active ingredient is present in dissolved form in matrix-TDS [3]: about 1 % (m/m)
SMILES: C#C[C@]1(O)C=C[C@H]2[C@@H]3CCC4=CC(=O)CC[C@@H]4[C@H]3CC[C@@]21CC [gestodene]
- solubility in the matrices used [1]: about 1%

- skin flows for 1%-matrix-TDS, hydroxytrienedione versus gestodene ([2]; 1%-matrix-TDS): comparable
- content up to which active ingredient is present in dissolved form in matrix-TDS [3]: about 20 % (m/m)
- solubility in transdermal systems ([3]; matrix-transdermal systems based on polyacrylate adhesive): about 20 % by weight
SMILES: C[C@H](O)C(=O)[C@]12C=C[C@@]3(CC1)C1CCC4=CC(=O)CCC4=C1CC[C@]23C (stereo partly drawn) [hydroxytrienedione, (21S)-21-hydroxy-21-methyl-14,17-ethano-19-norpregna-4,9,15-triene-3,20-dione]
